# Target: T1, purified bovine MTP (Bos taurus, UniProt P55156)
# T1 sequence (P55156 12-887): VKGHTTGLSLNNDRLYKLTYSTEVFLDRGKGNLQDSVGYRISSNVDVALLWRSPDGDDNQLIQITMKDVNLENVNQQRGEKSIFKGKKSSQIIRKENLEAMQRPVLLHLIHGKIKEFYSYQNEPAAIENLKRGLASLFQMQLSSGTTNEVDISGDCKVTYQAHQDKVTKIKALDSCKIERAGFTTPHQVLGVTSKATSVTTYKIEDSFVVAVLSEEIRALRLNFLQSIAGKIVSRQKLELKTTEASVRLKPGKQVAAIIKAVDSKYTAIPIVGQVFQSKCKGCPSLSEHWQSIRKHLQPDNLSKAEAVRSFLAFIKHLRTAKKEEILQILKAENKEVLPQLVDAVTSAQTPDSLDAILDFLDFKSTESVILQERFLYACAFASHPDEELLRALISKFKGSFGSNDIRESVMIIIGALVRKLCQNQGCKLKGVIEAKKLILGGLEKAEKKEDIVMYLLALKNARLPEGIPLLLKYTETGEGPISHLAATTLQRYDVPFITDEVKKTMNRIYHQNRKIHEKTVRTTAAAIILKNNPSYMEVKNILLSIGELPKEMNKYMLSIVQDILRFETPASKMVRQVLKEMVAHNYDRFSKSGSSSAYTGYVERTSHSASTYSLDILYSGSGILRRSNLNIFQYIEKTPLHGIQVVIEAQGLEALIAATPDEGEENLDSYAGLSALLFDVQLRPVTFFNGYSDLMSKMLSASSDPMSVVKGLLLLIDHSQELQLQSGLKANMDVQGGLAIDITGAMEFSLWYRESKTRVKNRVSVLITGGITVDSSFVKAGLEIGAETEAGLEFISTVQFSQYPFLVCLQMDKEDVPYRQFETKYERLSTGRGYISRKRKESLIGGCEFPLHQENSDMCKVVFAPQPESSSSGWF
# T1 sequence (P05307 21-510 partner): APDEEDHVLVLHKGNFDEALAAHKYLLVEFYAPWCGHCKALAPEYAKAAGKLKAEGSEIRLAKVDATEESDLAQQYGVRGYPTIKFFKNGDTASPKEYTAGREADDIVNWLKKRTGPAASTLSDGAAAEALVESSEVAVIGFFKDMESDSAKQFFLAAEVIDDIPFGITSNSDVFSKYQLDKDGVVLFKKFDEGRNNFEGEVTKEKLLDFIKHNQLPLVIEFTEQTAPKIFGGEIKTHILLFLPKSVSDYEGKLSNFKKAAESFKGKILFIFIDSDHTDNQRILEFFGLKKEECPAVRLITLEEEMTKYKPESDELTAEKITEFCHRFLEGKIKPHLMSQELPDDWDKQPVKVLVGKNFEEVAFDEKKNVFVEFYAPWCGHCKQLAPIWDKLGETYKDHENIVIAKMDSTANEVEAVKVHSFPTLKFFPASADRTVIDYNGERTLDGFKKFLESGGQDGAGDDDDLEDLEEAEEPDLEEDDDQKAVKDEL
# Experiment: MTP-mediated transfer of lipid classes biosynthetically labeled with OA or EPA (donor/acceptor vesicles)
# Assay type: biochemical
# Protocol: FIG. 5 illustrates that Ω-3 lipids are good substrates for MTP-mediated lipid transfer. HepG2 cells were incubated for 14 hr at 37° C. with ^14C-labeled oleate (OA) or ^14C-labeled EPA complexed to BSA (final concentration of either fatty acid was 0.8 mM). Total lipids were extracted from the washed cell monolayers and separated by preparative TLC into triglyceride (TG), cholesteryl ester (CE), phosphatidylcholine (PC), and phosphatidylethanolamine (PE). The isolated lipid classes were then incorporated (to a content of 0.5 mol %) into vesicles that were used as donors in lipid transfer assays with recombinant MTP. Results were normalized to the transfer of [^14C]triolein and are shown as mean values ±SE (n=4).
# Three methods were used to assess possible effects of Ω-3 fatty acids on cellular MTP function. First, rat primary hepatocytes were incubated with BSA, OA, or EPA, and then MTP activity in cell lysates was measured using a fluorescent assay (Roar Biomedical, New York, NY). Second, to determine if lipid classes synthesized in the presence of OA or Ω-3 fatty acid are equivalent substrates for MTP, primary rat hepatocytes or HepG2 cells were incubated with tritiated OA or EPA, total cellular lipids were extracted into isopropanol, and biosynthetically labeled cholesteryl ester, triglyceride, and phospholipids were separated by preparative thin layer chromatography. Each of these isolated lipids was incorporated into vesicles that were used as donors in a transfer reaction with acceptor vesicles and […] of purified bovine MTP, as described in Jamil, H., Dickson, J. K., Jr., Chu, C. H., Lago, M. W., Rinehart, J. K., Biller, S. A., Gregg, R. E., and Wetterau, J. R. (1995) J Biol Chem 270(12), 6549-54. As an internal control for lipid transfer, each donor vesicle also contained [^14C]triolein. Third, to determine if Ω-3 lipids inhibit MTP-mediated transfer of non-Ω-3 lipids, artificial donor vesicles were prepared containing either labeled triolein or labeled POPC. The majority of lipid mass in these vesicles was unlabeled phosphatidylcholine that contained either 100% oleate esterified at the sn-2 position (control) or a mixture of 70% oleate and 30% DHA or 30% EPA. Transfer of the labeled lipids to acceptor vesicles in the presence of 50 μg of purified bovine MTP was measured as described in Jamil, H. et al (1995) J Biol Chem 270(12), 6549-54.
# An intracellular abundance of relatively poor lipid substrates, produced during incubations of hepatocytes with EPA or DHA, could be functionally equivalent to MTP inhibition. Thus, rat primary hepatocytes and HepG2 cells were incubated with radiolabeled OA or EPA to allow incorporation of these fatty acids into lipid esters. […]
structure (smiles),measurement,setting,value
"CCCCCCCC/C=C\CCCCCCCC(=O)O [OA, oleic acid]","MTP-mediated transfer of labeled cholesteryl esters, % of [14C]triolein transfer","lipids from fatty acid-treated HepG2 cells, P=0.07",20%+4%
same,"MTP-mediated transfer of labeled phosphatidylethanolamines, % of [14C]triolein transfer","lipids from fatty acid-treated HepG2 cells, P=0.6",1.1%+0.1%
same,"MTP-mediated transfer of labeled phosphatidylcholines, % of [14C]triolein transfer","lipids from fatty acid-treated HepG2 cells, P=0.7",2.3%+1%
same,"MTP-mediated transfer rate of labeled triglycerides, % of [14C]triolein transfer","lipids harvested from fatty acid-treated HepG2 cells, P=0.3",60%±8%

# — US20030170643A1, “Regulation of apoB treatment and drug screening for cardiovascular and metabolic disorders or syndromes” (priority 1999, published 2003)
